Converted amounts (≈) assume the structure as drawn.
Experiments:
[1] = tested on: Human immunodeficiency virus 1; experiment: Antiviral activity against HIV1 assessed as cellular protection by cell based XTT assay; assay type: functional
[2] = tested on: Human immunodeficiency virus 1; experiment: Antiviral activity against HIV1 assessed as inhibition of cytopathic effect by cell based XTT assay; assay type: functional, organism-based

In the case of `C/C1=C\[C@@H]2OC(=O)[C@@H](CN(C)C)[C@@H]2CC/C(C)=C/CC/C(C(=O)O)=C/CC1`, the Activity [1] was 55%, the EC50 [2] was 3.3 µg/mL (≈ 8.79 µM) and the IC50 [2] was 10.2 µg/mL (≈ 27.2 µM).

`C=C1C(=O)O[C@H]2/C=C(\C)CC/C=C(\C(=O)O)CC/C=C(\C)CC[C@@H]12` [(7Z)-LOBOHEDLEOLIDE] gave an Activity [1] of 55%, an EC50 [2] of 4.6 µg/mL (≈ 13.9 µM) and an IC50 [2] of 7.6 µg/mL (≈ 23 µM).

For `C=C1C(=O)O[C@H]2/C=C(\C)CC/C=C(/C(=O)O)CC/C=C(\C)CC[C@@H]12` [LOBOHEDLEOLIDE], the Activity [1] was 55%, the EC50 [2] was 3.6 µg/mL (≈ 10.9 µM) and the IC50 [2] was 9 µg/mL (≈ 27.2 µM).
